34 compounds from patent US9969749B2, “Inhibitors of IRAK4 activity” (MERCK SHARP & DOHME CORP., priority 2014, dated 2018) can be followed below.

The target of the experiment is IRAK4 (Homo sapiens (Human), UniProt Q9NWZ3). Put plainly: IRAK4 Kinase Assay (IMAP fluorescence polarization). It counts as biochemical. The following applies: 0.5 nM GST tagged IRAK4, 100 μM ATP, 100 nM fluorescent peptide substrate RP7030, 30 minutes at 25° C. How it is done: The kinase activity of IRAK4 is determined by its ability to catalyze the phosphorylation of a fluorescent polypeptide substrate. The extent of phosphorylation is measured using the IMAP technology (Molecular Devices) where the phosphorylated fluorescent substrate binds to the large M(III)-based nanoparticles which reduces the rotational speed of the substrate and thus increases its fluorescent polarization (FP).
Chain of IRAK4 (Q9NWZ3 whole entry): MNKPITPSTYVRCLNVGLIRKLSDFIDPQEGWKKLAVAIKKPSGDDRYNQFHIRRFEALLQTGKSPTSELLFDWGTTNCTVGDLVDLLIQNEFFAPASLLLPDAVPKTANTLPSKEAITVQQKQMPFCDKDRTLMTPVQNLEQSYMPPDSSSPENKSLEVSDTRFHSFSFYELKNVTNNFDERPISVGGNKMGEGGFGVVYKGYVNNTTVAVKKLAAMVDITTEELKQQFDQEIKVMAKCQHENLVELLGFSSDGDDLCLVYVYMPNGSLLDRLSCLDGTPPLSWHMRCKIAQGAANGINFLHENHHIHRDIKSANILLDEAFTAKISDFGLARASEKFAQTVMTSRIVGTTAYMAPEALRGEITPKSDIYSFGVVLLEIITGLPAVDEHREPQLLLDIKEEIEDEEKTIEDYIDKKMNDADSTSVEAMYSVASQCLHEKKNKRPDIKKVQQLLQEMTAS
20 μL reaction mixture contains 10 mM TriHCl, pH 7.2, 0.5 nM GST tagged IRAK4 (SignalChem), 100 nM fluorescent peptide substrate (RP7030, Molecular Devices), 100 μM ATP, 1 mM DDT, 1 mM MgCl2, and 0.01% Tween 20. The reaction is initiated by the addition of ATP. After incubation for 30 minutes at 25° C., 60 μL of Progressive IMAP Reagent (Molecular Devices) is added to stop the reaction. Change in RP7030's FP is determined by a FP reader (Analyst HT, LJL BioSystems).
A general note: Fluorescence polarisation rises when a labelled molecule tumbles more slowly, as on binding a larger partner.
A word on the IC50: it is the concentration needed to halve the response being measured. The low end stands for greater potency in that assay, the high end for weaker potency in that assay. `CN(C)[C@H]1CC[C@H](Nc2ncnc3ccc(-c4ccc(C#N)nc4)cc23)CC1` [Example 1-27, 5-(4-{[trans-4-(dimethylamino)cyclohexyl]amino}quinazolin-6-yl)pyridine-2-carbonitrile] gave an IC50 of 43 nM.

Turning to `CN(C)[C@H]1CC[C@H](Nc2ncnc3ccc(-c4ccc(O)nc4)cc23)CC1` [Example 1-28, 5-(4-{[trans-4-(dimethylamino)cyclohexyl]amino}quinazolin-6-yl)pyridin-2-ol], the IC50 was 7 nM.

For `CN(C)[C@H]1CC[C@H](Nc2ncnc3ccc(-c4cnc(N)nc4)cc23)CC1` [Example 1-29, trans-N′-[6-(2-aminopyrimidin-5-yl)quinazolin-4-yl]-N,N-dimethylcyclohexane-1,4-diamine], the midpoint of inhibition, the IC50, lay at 19 nM.

As for `Cc1ccc(-c2ccc3ncnc(N[C@H]4CC[C@H](N(C)C)CC4)c3c2)cn1` [Example 1-30, trans-N,N-dimethyl-N′-[6-(6-methylpyridin-3-yl)quinazolin-4-yl]cyclohexane-1,4-diamine], the IC50 was 42 nM.

`COC(=O)c1cncc(-c2ccc3ncnc(N[C@H]4CC[C@H](N(C)C)CC4)c3c2)c1` [Example 1-31, methyl 5-(4-{[trans-4-(dimethylamino)cyclohexyl]amino}quinazolin-6-yl)pyridine-3-carboxylate] yielded an IC50 of 45 nM. The IC50 values of the last two compounds are within 1.5-fold of each other.

In turn, `CN(C)[C@H]1CC[C@H](Nc2ncnc3ccc(-c4cnoc4)cc23)CC1` [Example 1-32, trans-N′-[6-(isoxazol-4-yl)quinazolin-4yl]-N,N-dimethylcyclohexane-1,4-diamine] registered an IC50 of 9 nM. This IC50 lies about 5-fold lower than the previous one.

On to `CN(C)[C@H]1CC[C@H](Nc2ncnc3ccc(-c4cnc(O)nc4)cc23)CC1` [Example 1-33, 5-(4-{[trans-4-(dimethylamino)cyclohexyl]amino}quinazolin-6-yl)pyrimidin-2-ol], for which the IC50 amounted to 9 nM.

The compound `CN(C)[C@H]1CC[C@H](Nc2ncnc3ccc(-c4ccncc4F)cc23)CC1` [Example 1-34, trans-N′-[6-(3-fluoropyridin-4-yl)quinazolin-4-yl]-N,N-dimethylcyclohexane-1,4-diamine] displayed an IC50 of 11 nM.

In turn, `COc1ccncc1-c1ccc2ncnc(N[C@H]3CC[C@H](N(C)C)CC3)c2c1` [Example 1-35, trans-N′-[6-(4-methoxypyridin-3-yl)quinazolin-4-yl]-N,N-dimethylcyclohexane-1,4-diamine] displayed an IC50 of 394 nM.

Compound `CN(C)[C@H]1CC[C@H](Nc2ncnc3ccc(-c4cnccc4C(F)(F)F)cc23)CC1` [Example 1-36, trans-N,N-dimethyl-N′-{6-[4-(trifluoromethyl)pyridin-3-yl]quinazolin-4-yl}cyclohexane-1,4-diamine] registered an IC50 of 19 nM. This IC50 is about 21-fold lower than that of the compound before.

`CN(C)[C@H]1CC[C@H](Nc2ncnc3ccc(-c4cncc(C(=O)O)c4)cc23)CC1` [Example 1-37, 5-(4-{[trans-4-(dimethylamino)cyclohexyl]amino}quinazolin-6-yl)pyridine-3-carboxylic acid]: the 50% inhibitory concentration (IC50) worked out at 504 nM.

The compound `COc1cnccc1-c1ccc2ncnc(N[C@H]3CC[C@H](N(C)C)CC3)c2c1` [Example 1-38, trans-N′-[6-(3-methoxypyridin-4-yl)quinazolin-4-yl]-N,N-dimethylcyclohexane-1,4-diamine] registered an IC50 of 71 nM. Against the preceding compound, the IC50 is about 7.1-fold lower.

Turning to `CN(C)[C@H]1CC[C@H](Nc2ncnc3ccc(-c4cccnc4C#N)cc23)CC1` [Example 1-39, 3-(4-{[trans-4-(dimethylamino)cyclohexyl]amino}quinazolin-6-yl)pyridine-2-carbonitrile], the IC50 worked out at 43 nM.

Compound `COCCOc1cncc(-c2ccc3ncnc(N[C@H]4CC[C@H](N(C)C)CC4)c3c2)c1` [Example 1-40, trans-N′-{6-[5-(2-methoxyethoxy)pyridin-3-yl]quinazolin-4-yl}-N,N-dimethylcyclohexane-1,4-diamine] yielded an IC50 of 83 nM.

In turn, `CN(C)[C@H]1CC[C@H](Nc2ncnc3ccc(-c4cncc(S(C)(=O)=O)c4)cc23)CC1` [Example 1-41, trans-N,N-dimethyl-N′-{6-[5-(methylsulfonyl)pyridin-3-yl]quinazolin-4-yl}cyclohexane-1,4-diamine] returned an IC50 of 2350 nM.

Consider `CN(C)[C@H]1CC[C@H](Nc2ncnc3ccc(-c4cnc(NC5CC5)nc4)cc23)CC1` [Example 1-42, trans-N′-{6-[2-(cyclopropylamino)pyrimidin-5-yl]quinazolin-4-yl}-N,N-dimethylcyclohexane-1,4-diamine], for which the midpoint of inhibition, the IC50, lay at 11 nM.

Consider `CN(C)[C@H]1CC[C@H](Nc2ncnc3ccc(-c4cnc(NCCO)nc4)cc23)CC1` [Example 1-43, 2-{[5-(4-{[trans-4-(dimethylamino)cyclohexyl]amino}quinazolin-6-yl)pyrimidin-2-yl]amino}ethanol], for which half-maximal inhibition (IC50) was put at 25 nM. Compared with the last compound, the IC50 is about 2.3-fold higher.

As to `CN(C)[C@H]1CC[C@H](Nc2ncnc3ccc(-c4cccc(C#N)c4)cc23)CC1` [Example 1-44, 3-(4-{[trans-4-(dimethylamino)cyclohexyl]amino}quinazolin-6-yl)benzonitrile], the IC50 is 32 nM.

As to `CN(C)[C@H]1CC[C@H](Nc2ncnc3ccc(-c4ccc5[nH]ccc5c4)cc23)CC1` [Example 1-45, trans-N′-[6-(1H-indol-5-yl)quinazolin-4-yl]-N,N-dimethylcyclohexane-1,4-diamine], the IC50 was 81 nM. This IC50 is about 2.5-fold higher than that of the compound before.

`c1cncc(-c2ccc3ncnc(N[C@H]4CC[C@H](N5CCOCC5)CC4)c3c2)c1` [Example 1-46, N-[trans-4-(morpholin-4-yl)cyclohexyl]-6-(pyridin-3-yl)quinazolin-4-amine] showed an IC50 of 19 nM.

The compound `c1ncc(-c2ccc3ncnc(N[C@H]4CC[C@H](N5CCOCC5)CC4)c3c2)cn1` [Example 1-47, N-[trans-4-(morpholin-4-yl)cyclohexyl]-6-(pyrimidin-5-yl)quinazolin-4-amine] had a half-inhibitory concentration (IC50) of 3 nM. Against the preceding compound, the IC50 is about 6.3-fold lower.

`c1cc(-c2ccc3ncnc(N[C@H]4CC[C@H](N5CCOCC5)CC4)c3c2)ccn1` [Example 1-48, N-[trans-4-(morpholin-4-yl)cyclohexyl]-6-(pyridin-4-yl)quinazolin-4-amine] registered an IC50 of 9 nM.

`CN(C)[C@H]1CC[C@H](Nc2ncnc3ccc(-c4ccc5c(c4)OCCO5)cc23)CC1` [Example 1-49, trans-N′-[6-(2,3-dihydro-1,4-benzodioxin-6-yl)quinazolin-4-yl]-N,N-dimethylcyclohexane-1,4-diamine] had an IC50 of 161 nM.

Regarding `CN(C)[C@H]1CC[C@H](Nc2ncnc3ccc(-c4ccnnc4)cc23)CC1` [Example 1-50, trans-N,N-dimethyl-N′-[6-(pyridazin-4-yl)quinazolin-4-yl]cyclohexane-1,4-diamine], half-maximal inhibition (IC50) required 11 nM.

Compound `COc1cncc(-c2ccc3ncnc(N[C@H]4CC[C@H](N(C)C)CC4)c3c2)c1` [Example 1-51, trans-N′-[6-(5-methoxypyridin-3-yl)quinazolin-4-yl]-N,N-dimethylcyclohexane-1,4-diamine] registered an IC50 of 25 nM.

On to `COc1ncc(-c2ccc3ncnc(N[C@H]4CC[C@H](N(C)C)CC4)c3c2)cc1F` [Example 1-52, trans-N′-[6-(5-fluoro-6-methoxypyridin-3-yl)quinazolin-4-yl]-N,N-dimethylcyclohexane-1,4-diamine], for which the IC50 was 200 nM.

On to `CN(C)[C@H]1CC[C@H](Nc2ncnc3ccc(-c4cncc(F)c4)cc23)CC1` [Example 1-53, trans-N′-[6-(5-fluoropyridin-3-yl)quinazolin-4-yl]-N,N-dimethylcyclohexane-1,4-diamine], for which inhibition was half-maximal at 24 nM (IC50). This IC50 is about 8.3-fold lower than that of the compound before.

Compound `CN(C)[C@H]1CC[C@H](Nc2ncnc3ccc(-c4cncc(C#N)c4)cc23)CC1` [Example 1-54, 5-(4-{[trans-4-(dimethylamino)cyclohexyl]amino}quinazolin-6-yl)pyridine-3-carbonitrile] had an IC50 of 46 nM. This IC50 lies about 1.9-fold higher than the previous one.

`CN(C)[C@H]1CC[C@H](Nc2ncnc3ccc(-c4cnc5[nH]ccc5c4)cc23)CC1` [Example 1-55, trans-N,N-dimethyl-N′-[6-(1H-pyrrolo[2,3-b]pyridin-5-yl)quinazolin-4-yl]cyclohexane-1,4-diamine] gave an IC50 of 46 nM. This lies in the double-digit nanomolar range.

In turn, `CN(C)[C@H]1CC[C@H](Nc2ncnc3ccc(-c4cncc(C(=O)NC(C)(C)C)c4)cc23)CC1` [Example 1-56, N-tert-butyl-5-(4-{[trans-4-(dimethylamino)cyclohexyl]amino}quinazolin-6-yl)pyridine-3-carboxamide] came in with an IC50 of 129 nM.

`CN1CCOc2cc(-c3ccc4ncnc(N[C@H]5CC[C@H](N(C)C)CC5)c4c3)cnc21` [Example 1-57, trans-N,N-dimethyl-N′-[6-(4-methyl-3,4-dihydro-2H-pyrido[3,2-b][1,4]oxazin-7-yl)quinazolin-4-yl]cyclohexane-1,4-diamine] displayed an IC50 of 6730 nM. This IC50 is about 52-fold higher than that of the compound before.

Regarding `CN(C)[C@H]1CC[C@H](Nc2ncnc3ccc(-c4cnc5[nH]ncc5c4)cc23)CC1` [Example 1-58, trans-N,N-dimethyl-N′-[6-(1H-pyrazolo[3,4-b]pyridin-5-yl)quinazolin-4-yl]cyclohexane-1,4-diamine], the IC50 came to 21 nM. Against the preceding compound, the IC50 is about 320-fold lower.

`CN(C)[C@H]1CC[C@H](Nc2ncnc3ccc(-c4cnc5cc[nH]c5c4)cc23)CC1` [Example 1-59, trans-N,N-dimethyl-N′-[6-(1H-pyrrolo[3,2-b]pyridin-6-yl)quinazolin-4-yl]cyclohexane-1,4-diamine] displayed a 50% inhibitory concentration (IC50) of 124 nM.

For the compound `Cn1cnc2cc(-c3ccc4ncnc(N[C@H]5CC[C@H](N(C)C)CC5)c4c3)cnc21` [Example 1-60, trans-N,N-dimethyl-N′-[6-(3-methyl-3H-imidazo[4,5-b]pyridin-6-yl)quinazolin-4-yl]cyclohexane-1,4-diamine], half-maximal inhibition (IC50) was put at 1690 nM. This IC50 lies about 14-fold higher than the previous one.
